The values that follow come from ChEMBL document CHEMBL1201862, “PubChem BioAssay data set” (2004).

Active and inactive are the calls of the source. Some results are limits rather than exact numbers.

Experiment [1] deals with Eukaryotic translation initiation factor 4H (Homo sapiens, UniProt Q15056). In words: human eIF4H binding inhibitors, primary screen, translation initiation inhibitor project, biochemical, uHTS, fluorescence polarization (AID 2012). On the technique in general: Polarisation of emitted light reports the rotation of a fluorescent probe.
Experiment [2] has as its target Polyadenylate-binding protein 1 (Homo sapiens, UniProt P11940). In words: PABP poly(A) RNA binding inhibitors, primary screen, biochemical, fluorescence polarization, uHTS (AID 2014).
Experiment [3] can be described thus: cytotoxicity toward NIH3T3 fibroblasts, dose response, counter-screen, cell-based, ATP luminescence, mouse fibroblasts (AID 2010).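 Also: cells exposed to compound for about 90 hours before reading.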 Type of experiment: functional.
The target of experiment [4] is T1, Replicative DNA helicase DnaB (Mycobacterium tuberculosis, UniProt P9WMR3).
T1 sequence (P9WMR3 whole entry): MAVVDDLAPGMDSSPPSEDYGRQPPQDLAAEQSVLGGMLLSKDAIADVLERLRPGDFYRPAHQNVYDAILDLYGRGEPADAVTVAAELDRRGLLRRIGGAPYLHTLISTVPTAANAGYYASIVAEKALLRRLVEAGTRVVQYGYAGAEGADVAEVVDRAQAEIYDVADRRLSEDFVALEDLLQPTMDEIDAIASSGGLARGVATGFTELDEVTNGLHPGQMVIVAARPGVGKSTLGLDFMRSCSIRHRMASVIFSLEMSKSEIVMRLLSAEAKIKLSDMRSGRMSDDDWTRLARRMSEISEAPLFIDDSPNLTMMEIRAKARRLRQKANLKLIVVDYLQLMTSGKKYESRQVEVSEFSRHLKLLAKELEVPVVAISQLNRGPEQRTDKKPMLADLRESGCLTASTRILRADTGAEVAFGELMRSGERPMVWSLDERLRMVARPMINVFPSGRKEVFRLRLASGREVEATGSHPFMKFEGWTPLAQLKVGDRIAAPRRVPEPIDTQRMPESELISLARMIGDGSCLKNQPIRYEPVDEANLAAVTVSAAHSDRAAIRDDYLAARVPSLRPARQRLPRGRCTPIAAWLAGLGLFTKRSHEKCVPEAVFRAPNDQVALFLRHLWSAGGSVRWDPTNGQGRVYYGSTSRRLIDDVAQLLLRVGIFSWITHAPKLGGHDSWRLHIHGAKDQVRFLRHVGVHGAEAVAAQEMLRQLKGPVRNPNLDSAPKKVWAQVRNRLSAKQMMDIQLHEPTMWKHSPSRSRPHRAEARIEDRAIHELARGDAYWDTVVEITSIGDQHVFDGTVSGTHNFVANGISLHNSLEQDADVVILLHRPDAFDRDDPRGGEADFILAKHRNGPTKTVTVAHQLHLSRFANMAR
Kind of experiment: DnaB intein splicing inhibitors, dose response, biochemical, cell-free fluorescence (AID 449749). The format is functional.

For experiment [5], the target named is T2, Protein RecA (Mycobacterium tuberculosis, UniProt P9WHJ3).
T2 sequence (P9WHJ3 whole entry): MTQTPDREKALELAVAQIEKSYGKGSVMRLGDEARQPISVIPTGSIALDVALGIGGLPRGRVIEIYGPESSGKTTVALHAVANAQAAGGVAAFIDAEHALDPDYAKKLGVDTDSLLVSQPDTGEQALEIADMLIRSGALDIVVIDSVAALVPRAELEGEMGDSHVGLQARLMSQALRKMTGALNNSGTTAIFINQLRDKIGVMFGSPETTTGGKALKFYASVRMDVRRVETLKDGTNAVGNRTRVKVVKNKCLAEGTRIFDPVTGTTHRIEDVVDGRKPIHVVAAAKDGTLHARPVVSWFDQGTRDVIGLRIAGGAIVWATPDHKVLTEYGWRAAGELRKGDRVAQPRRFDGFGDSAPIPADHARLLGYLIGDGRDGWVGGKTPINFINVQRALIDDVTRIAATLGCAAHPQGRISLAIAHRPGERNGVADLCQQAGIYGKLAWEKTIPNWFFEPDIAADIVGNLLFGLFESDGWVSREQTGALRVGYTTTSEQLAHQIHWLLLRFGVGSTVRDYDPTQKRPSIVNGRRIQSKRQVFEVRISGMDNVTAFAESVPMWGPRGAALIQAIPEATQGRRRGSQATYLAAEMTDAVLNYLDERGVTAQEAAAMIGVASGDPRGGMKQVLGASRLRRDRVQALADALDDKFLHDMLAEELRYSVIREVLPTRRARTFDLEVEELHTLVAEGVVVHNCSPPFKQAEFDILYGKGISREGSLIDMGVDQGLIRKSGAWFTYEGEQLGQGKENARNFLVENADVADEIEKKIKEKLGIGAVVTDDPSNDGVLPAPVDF
In words: Fluorescence Cell-Free Homogeneous Dose Retest to Identify Inhibitors of RecA-Intein Splicing Activity. [Related pubchem assays (depositor defined):AID2097, AID2223, AID489010, AID492950]. Type of experiment: functional.

A short description of experiment [6]: Artemis endonuclease inhibitor potency, dose response, biochemical, fluorescence intensity (AID 720701).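 Also: Artemis endonuclease enzyme.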 The format is functional.
The target in experiment [7] is Likely tRNA 2'-phosphotransferase (Candida albicans (strain SC5314 / ATCC MYA-2876) (Yeast), UniProt Q5A7N4). In words: TPT1 tRNA phosphotransferase inhibitors, dose response, biochemical, fluorescence polarization (AID 2160).
Chain of Likely tRNA 2'-phosphotransferase (Q5A7N4 whole entry): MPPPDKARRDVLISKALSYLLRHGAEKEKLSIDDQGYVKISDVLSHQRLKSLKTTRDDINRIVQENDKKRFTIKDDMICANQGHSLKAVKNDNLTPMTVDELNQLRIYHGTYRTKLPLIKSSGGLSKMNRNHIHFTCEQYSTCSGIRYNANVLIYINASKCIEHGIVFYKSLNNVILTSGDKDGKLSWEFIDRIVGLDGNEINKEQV
Experiment [8] is described as follows: inhibitors of intracellular T. cruzi replication, confirmation, NIH3T3 host cells, beta-gal luminescence (AID 2044).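 Also: intracellular parasites grown in NIH/3T3 mouse fibroblasts as host cells; luminescent beta-galactosidase reporter signal from transgenic T. cruzi replicating inside host cells; inhibitors lower the luminescence signal.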 Type of experiment: functional, cell-based.
The target in experiment [9] is Guanyl-specific ribonuclease T1 (Aspergillus oryzae (strain ATCC 42149 / RIB 40), UniProt P00651). Kind of experiment: RNase T1 inhibitors, dose response, counter-screen for TPT1 inhibitor project, biochemical, fluorescence polarization, 1536-well (AID 2167).
Chain of Guanyl-specific ribonuclease T1 (P00651 whole entry): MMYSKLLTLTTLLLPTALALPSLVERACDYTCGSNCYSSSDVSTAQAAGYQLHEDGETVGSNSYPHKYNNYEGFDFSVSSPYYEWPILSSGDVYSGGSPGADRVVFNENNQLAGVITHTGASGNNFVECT

Chain of Polyadenylate-binding protein 1 (P11940 whole entry): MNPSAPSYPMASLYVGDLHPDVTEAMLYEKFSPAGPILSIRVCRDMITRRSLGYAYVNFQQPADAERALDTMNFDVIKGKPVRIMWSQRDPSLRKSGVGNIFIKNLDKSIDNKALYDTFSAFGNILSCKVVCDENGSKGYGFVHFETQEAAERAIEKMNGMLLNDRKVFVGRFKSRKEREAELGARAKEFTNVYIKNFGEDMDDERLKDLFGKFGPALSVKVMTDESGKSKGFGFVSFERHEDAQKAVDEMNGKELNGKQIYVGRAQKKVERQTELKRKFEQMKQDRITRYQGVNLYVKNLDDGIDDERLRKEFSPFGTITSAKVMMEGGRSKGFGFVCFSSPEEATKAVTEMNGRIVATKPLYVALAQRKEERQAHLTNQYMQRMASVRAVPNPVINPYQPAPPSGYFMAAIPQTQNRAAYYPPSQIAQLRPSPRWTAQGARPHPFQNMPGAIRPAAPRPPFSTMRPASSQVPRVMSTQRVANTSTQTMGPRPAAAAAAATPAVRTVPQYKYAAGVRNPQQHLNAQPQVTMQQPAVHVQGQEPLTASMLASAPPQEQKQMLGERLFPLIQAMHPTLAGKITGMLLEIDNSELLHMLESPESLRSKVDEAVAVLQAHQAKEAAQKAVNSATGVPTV

One may read the IC50 as the midpoint of a concentration-inhibition curve. Turning to `O=C1C=C(NCc2ccc(Cl)cc2)CC(c2ccco2)C1` (centres undefined), the IC50 in experiment [1] is 41.3 µM (active); in experiment [2], 64.6 µM (active).

The EC50 is the concentration giving half of the maximal effect. By AC50 is commonly meant the concentration at which the activity in the assay is half-maximal. Consider `Cc1ccc2nc(N/N=C\c3ccc([N+](=O)[O-])o3)nc(-c3ccccc3)c2c1`, for which the EC50 in [3] was 9.01 µM (active); in experiment [5], 208 µM (inconclusive); in experiment [8], 0.176 µM (active). Moreover, the AC50 in experiment [4] is > 380 µM (inactive). For the same compound, the IC50 in [6] was > 20 µM (inactive); in [7], > 55.7 µM (not active); in experiment [9], > 55.7 µM (not active).
